Test results as given in patent US20230390291A1, “TREATMENT OF SKIN DISORDERS WITH COMPOSITIONS COMPRISING AN EGFR INHIBITOR” (Sol-Gel Technologies Ltd., priority 2018, published 2023).
Counter-ions that a name gives are not always drawn. Like-named read-outs stand apart in the source and are kept apart here.

What was measured:
[1] = cited from earlier work
[2] = test system: psoriasis-induced human skin xenotransplants; assay: Histological evaluation of psoriasis-induced xenotransplants; format: in vivo, beige-SCID mice; settings: topical for 14 days, histology on Day 56
From the text: The objective of this study was to determine the efficacy of Erlotinib 5% as provided herein compared to the vehicle and Dexamethasone as shown at the Table below. The evaluation was based on histology analysis following application of the respective test formulations.
The efficacy study has been conducted on female mice. The total duration of the experiment was 8 weeks, upon receiving of the human skin. Normal skin from healthy volunteers were obtained for grafting. Healthy human abdominal skin pieces with a width of 0.4 mm and surface area of 1.5×1.5 cm were provided. The skin sample was preserved in isotonic saline solution and transplanted within 6-12 hours after skin donation. In addition, blood samples were collected from psoriatic patients having classic plaque psoriasis and not undergoing any treatment. 20 mL blood samples were taken from both males and females psoriatic patients (from psoriatic patients having classic plaque psoriasis and not undergoing any treatment), and peripheral blood mononuclear cells (PBMC) were separated immediately after blood withdrawal.
Mice: Beige-severe combined immunodeficient mice C.B-17/IcrHsdscid-bg (beige-SCID) mice (weight ˜25 g) were included in this study. Mice were monitored twice a week for vital signs such as weight, food intake, coat, eyes, anal genital areas, discharge/soiling, behavior and criteria related to skin transplantation. Normal healthy human donor skin were transplanted onto the beige-SCID mice as previously described (See Keren A. et al., Novel nanosome delivery system combined with siRNA targeting the antimicrobial gene DFB4: a new approach for psoriasis management?ExpDermatol. 2014; 23:464-465; Bracke S. et al.,Targeted silencing of DEFB4 in a bioengineered skin-humanized mouse model for psoriasis: development of siRNA SECosome-based novel therapies. ExpDermatol. 2014 ;23:199-201; Zaretsky M. et al., Directed evolution of a soluble human IL-17A receptor for the inhibition of psoriasis plaque formation in a mouse model. Chem Biol. 2013 21; 20:202-2; Gilhar A. et al., The beneficial effect of blocking Kv1.3 in the psoriasiform SCID mouse model. J Invest Dermatol. 2011;131:118 124; Keren A. et al., Innate lymphoid cells 3 induce psoriasis in xenotransplanted healthy human skin. J Allergy Clin Immunol. 2018;142:305-308.e6.).
British Journal of Pharmacology 2010; 159:842-855).
Four weeks following the engraftment, each mouse was injected (intradermally) with 1×10^7 IL-2 enriched allogeneic PBMC's from psoriatic patients (1×10^7 cells injected/mouse). Cells from different psoriasis patients were equally distributed between treatment groups. Each patient was represented in each treatment group.
Fourteen days following cells injections, the mice were divided into treatment groups (Table, see below) and treated according to the timeline indicated below (see Scheme 1). Each transplant was equally topically treated (50 μg) by using a sterile spatula.
Dexamethasone (D2915, Sigma): was freshly prepared for each administration by dilution in saline to final concentration (50 mg/ml). Dexamethasone serves as a positive control and was administered topically twice daily for 14 days following cells injections (at Day 42 following human skin transplantation) until the end of the study (Day 56).
The vehicle was administered topically (50 μg) once daily for 14 days as well.
On Day 56, the entire skin graft was excised and placed in 10% formaldehyde in saline overnight. Then, the specimens were placed in 70% ethanol and embedded and stained according to the standard Hematoxylin/Eosin protocol.
Skin graft histological assessment was performed (according to the psoriatic criteria including epidermal thickness) using light microscopy, and two observers blindly performed the evaluations. Epidermal thickness was determined using an ocular micrometer at a minimum of 50 points along the epidermis selected to represent points of maximal and minimal thickness. […]

[3] = test system: Ki67; assay: Epidermal proliferation of transplants, Ki67 immunohistochemical staining; format: in vivo, beige-SCID mice; settings: xenotransplants after 14 days of treatment
Experimental: From the study of Example 11, the human skin xenotransplants were harvested and fixed in 10% saline-buffered formalin overnight followed by 70% ethanol. Sections were stained and visualized with immunohistochemistry.
Antigen retrieval was performed on the slides for 20 minutes in a microwave followed by cooling at room temperature for 25 minutes. Specimens were blocked for 30 minutes to prevent nonspecific binding and incubated with the primary antibody (Ab) overnight. The following primary antibodies were used: mouse anti human Ki67. Samples were then washed and incubated for 30 minutes with a biotinylated secondary antibody (Jackson ImmunoResearch, West Grove, Pa.). Finally, samples were washed and incubated with streptavidin-horseradish peroxidase (Jackson ImmunoResearch, West Grove, Pa.). […] Samples were examined using light microscopy.
Slides were evaluated by experienced blinded observers. The fields of immunostained sections were counted in three areas and presented randomly to the observer(s).

[4] = number of transplants out of 10

C#Cc1cccc(Nc2ncnc3cc(OCCOC)c(OCCOC)cc23)c1 [Erlotinib hydrochloride]
Solubility ([1]; in acetone): practically insoluble | Solubility ([1]; in acetonitrile): practically insoluble | Solubility ([1]; in ethyl acetate): practically insoluble | Solubility ([1]; in hexane): practically insoluble | Solubility ([1]; in methanol): slightly soluble | Solubility ([1]; in water): very slightly soluble

C[C@@H]1C[C@H]2[C@@H]3CCC4=CC(=O)C=C[C@]4(C)[C@@]3(F)[C@@H](O)C[C@]2(C)[C@@]1(O)C(=O)CO [Dexamethasone]
Complete Recovery [2, 4]: 9/10 | Partial Recovery [2, 4]: 1/10 | Psoriatic Features [2, 4]: 0/10 | Complete Recovery ([2]; percent of transplants): (90%) | Partial Recovery ([2]; percent of transplants): (10%) | Psoriatic Features ([2]; percent of transplants): (0%)

C#Cc1cccc(Nc2ncnc3cc(OCCOC)c(OCCOC)cc23)c1 [Erlotinib, N-(3-ethynylphenyl)-6,7-bis(2-methoxyethoxy)-4-quinazolinamine]
proliferation index (Ki-67) compared to vehicle-treated xenotransplants [3]: significant decrease
